The values that follow come from paper PMC5896955, “The signaling lipid sphingosine 1-phosphate regulates mechanical pain” (eLife, 2018).

The assay deals with T1, S1P Receptor 3 (S1PR3) (Mus musculus, UniProt Q9Z0U9).
T1 construct: native receptor / S1PR3-mCherry fusion in cultured mouse DRG neurons
Kind of assay: Fura-2 calcium imaging of DRG neurons with S1PR3 knockout control; also S1PR3-dependent tail current inhibition ([…]). It is filed as cell-based.

By EC50 is commonly meant the concentration needed to bring the measured effect to its halfway point.

T1 sequence (Q9Z0U9 whole entry, the tested form may be a part): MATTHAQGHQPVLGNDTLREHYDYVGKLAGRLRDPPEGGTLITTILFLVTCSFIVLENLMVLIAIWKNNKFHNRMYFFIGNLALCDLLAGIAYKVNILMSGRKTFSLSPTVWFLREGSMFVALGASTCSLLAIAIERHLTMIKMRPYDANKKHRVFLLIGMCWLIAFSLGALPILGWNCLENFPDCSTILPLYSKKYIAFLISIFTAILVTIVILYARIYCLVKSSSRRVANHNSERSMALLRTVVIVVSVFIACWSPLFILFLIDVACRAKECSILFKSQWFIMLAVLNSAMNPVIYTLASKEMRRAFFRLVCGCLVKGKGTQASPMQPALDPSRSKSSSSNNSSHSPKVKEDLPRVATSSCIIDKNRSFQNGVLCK

With `CCCCCCCCCCCCC/C=C/[C@@H](O)[C@@H](N)COP(=O)(O)O` [S1P, Sphingosine 1-phosphate], the EC50 was 155 nM.
